Tested on: HUVEC/MSC spheroids viability
Experiment: Human HUVEC/MSC cell line growth inhibition [KRAS2];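 for viability, T/C: percent of DMSO vehicle control luminescence so 100% = untreated viability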
Details: for IC50: curve of first compound; for viability, T/C: stronger effect = lower value; active = viability on the fitted dose curve at most 10% of control; inactive = the rest
How it was run: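 Concentration ranges start near each agent's clinical Cmax, or at 10 microM if none is established, and fall by half-log increments. These ranges are tested as single agents and combinations on endothelial/mesenchymal stem cell spheroids lacking tumour cells.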

[1] = second compound 0.00949 µM, first compound 0.0316 µM
[2] = second compound 0.00949 µM, first compound 0.1 µM
[3] = second compound 0.03 µM, first compound 0.0316 µM
[4] = second compound 0.03 µM, first compound 0.1 µM
[5] = second compound 0.0949 µM, first compound 0.0316 µM
[6] = second compound 0.0949 µM, first compound 0.1 µM
[7] = second compound 0.3 µM, first compound 0.0316 µM
[8] = second compound 0.3 µM, first compound 0.1 µM
[9] = second compound 0.949 µM, first compound 0.0316 µM
[10] = second compound 0.949 µM, first compound 0.1 µM
[11] = second compound 3 µM, first compound 0.0316 µM
[12] = second compound 3 µM, first compound 0.1 µM
[13] = second compound 0.00949 µM, first compound 0.316 µM
[14] = second compound 0.00949 µM, first compound 1 µM
[15] = second compound 0.00949 µM, first compound 3.16 µM
[16] = second compound 0.00949 µM, first compound 10 µM
[17] = second compound 0.03 µM, first compound 0.316 µM
[18] = second compound 0.03 µM, first compound 1 µM
[19] = second compound 0.03 µM, first compound 3.16 µM
[20] = second compound 0.03 µM, first compound 10 µM
[21] = second compound 0.0949 µM, first compound 0.316 µM
[22] = second compound 0.0949 µM, first compound 1 µM
[23] = second compound 0.0949 µM, first compound 3.16 µM
[24] = second compound 0.0949 µM, first compound 10 µM
[25] = second compound 0.3 µM, first compound 0.316 µM
[26] = second compound 0.3 µM, first compound 1 µM
[27] = second compound 0.3 µM, first compound 3.16 µM
[28] = second compound 0.3 µM, first compound 10 µM
[29] = second compound 0.949 µM, first compound 0.316 µM
[30] = second compound 0.949 µM, first compound 1 µM
[31] = second compound 0.949 µM, first compound 3.16 µM
[32] = second compound 0.949 µM, first compound 10 µM
[33] = second compound 3 µM, first compound 0.316 µM
[34] = second compound 3 µM, first compound 1 µM
[35] = second compound 3 µM, first compound 3.16 µM
[36] = second compound 3 µM, first compound 10 µM

CN(C)C/C=C/C(=O)Nc1cc2c(Nc3ccc(F)c(Cl)c3)ncnc2cc1O[C@H]1CCOC1 + C=CC(=O)N1CCN(c2nc(OCC3CCCN3C)nc3c2CCN(c2cccc4cccc(C)c24)C3)CC1CC#N
inactive: viability, T/C (second compound 0.00949 µM, first compound 0.000316 µM) 79.2% | viability, T/C (second compound 0.00949 µM, first compound 0.001 µM) 95.1% | viability, T/C (second compound 0.00949 µM, first compound 0.00316 µM) 88.5% | viability, T/C (second compound 0.00949 µM, first compound 0.01 µM) 82.1% | viability, T/C [1] 67.7% | viability, T/C [2] 74.4% | viability, T/C (second compound 0.03 µM, first compound 0.000316 µM) 92.5% | viability, T/C (second compound 0.03 µM, first compound 0.001 µM) 92.5% | viability, T/C (second compound 0.03 µM, first compound 0.00316 µM) 90.8% | viability, T/C (second compound 0.03 µM, first compound 0.01 µM) 78.8% | viability, T/C [3] 88.4% | viability, T/C [4] 99.2% | viability, T/C (second compound 0.0949 µM, first compound 0.000316 µM) 85.7% | viability, T/C (second compound 0.0949 µM, first compound 0.001 µM) 84.9% | viability, T/C (second compound 0.0949 µM, first compound 0.00316 µM) 82.3% | viability, T/C (second compound 0.0949 µM, first compound 0.01 µM) 79.8% | viability, T/C [5] 82.9% | viability, T/C [6] 95.2% | viability, T/C (second compound 0.3 µM, first compound 0.000316 µM) 82.6% | viability, T/C (second compound 0.3 µM, first compound 0.001 µM) 84.5% | viability, T/C (second compound 0.3 µM, first compound 0.00316 µM) 76.1% | viability, T/C (second compound 0.3 µM, first compound 0.01 µM) 73.4% | viability, T/C [7] 80.4% | viability, T/C [8] 63% | viability, T/C (second compound 0.949 µM, first compound 0.000316 µM) 63.9% | viability, T/C (second compound 0.949 µM, first compound 0.001 µM) 69.8% | viability, T/C (second compound 0.949 µM, first compound 0.00316 µM) 72.3% | viability, T/C (second compound 0.949 µM, first compound 0.01 µM) 80% | viability, T/C [9] 72.5% | viability, T/C [10] 73% | viability, T/C (second compound 3 µM, first compound 0.000316 µM) 82.1% | viability, T/C (second compound 3 µM, first compound 0.001 µM) 90.3% | viability, T/C (second compound 3 µM, first compound 0.00316 µM) 82% | viability, T/C (second compound 3 µM, first compound 0.01 µM) 73.8% | viability, T/C [11] 79% | viability, T/C [12] 93.7%
> 100 nM: IC50 (second compound 0.00949 µM) | IC50 (second compound 0.03 µM) | IC50 (second compound 0.0949 µM) | IC50 (second compound 0.3 µM) | IC50 (second compound 0.949 µM) | IC50 (second compound 3 µM)

COC(=O)c1ccc2c(C(=Nc3ccc(N(C)C(=O)CN4CCN(C)CC4)cc3)c3ccccc3)c(O)[nH]c2c1 + C=CC(=O)N1CCN(c2nc(OCC3CCCN3C)nc3c2CCN(c2cccc4cccc(C)c24)C3)CC1CC#N
894 nM: IC50 (second compound 3 µM)
2910 nM: IC50 (second compound 0.0949 µM)
1640 nM: IC50 (second compound 0.949 µM)
2810 nM: IC50 (second compound 0.3 µM)
active: viability, T/C [16] 0.43% | viability, T/C [20] 0.35% | viability, T/C [24] 0.37% | viability, T/C [28] 0.35% | viability, T/C [32] 0.31% | viability, T/C [35] 0.43% | viability, T/C [36] 0.33%
inactive: viability, T/C [1] 91.3% | viability, T/C [2] 82.5% | viability, T/C [13] 89.5% | viability, T/C [14] 57.8% | viability, T/C [15] 45.7% | viability, T/C [3] 81.1% | viability, T/C [4] 102% | viability, T/C [17] 76.4% | viability, T/C [18] 52.6% | viability, T/C [19] 52.6% | viability, T/C [5] 76% | viability, T/C [6] 78.3% | viability, T/C [21] 93.3% | viability, T/C [22] 68.1% | viability, T/C [23] 49.2% | viability, T/C [7] 60.5% | viability, T/C [8] 78.7% | viability, T/C [25] 78.3% | viability, T/C [26] 70.3% | viability, T/C [27] 47.7% | viability, T/C [9] 57.5% | viability, T/C [10] 73.2% | viability, T/C [29] 91.1% | viability, T/C [30] 55.5% | viability, T/C [31] 34.6% | viability, T/C [11] 65.2% | viability, T/C [12] 96.5% | viability, T/C [33] 84.3% | viability, T/C [34] 46.6%
2220 nM: IC50 (second compound 0.03 µM)
2180 nM: IC50 (second compound 0.00949 µM)

O=C(c1cc(Cc2n[nH]c(=O)c3ccccc23)ccc1F)N1CCN(C(=O)C2CC2)CC1 + C=CC(=O)N1CCN(c2nc(OCC3CCCN3C)nc3c2CCN(c2cccc4cccc(C)c24)C3)CC1CC#N
inactive: viability, T/C [1] 80.8% | viability, T/C [2] 101% | viability, T/C [13] 89.4% | viability, T/C [14] 82.3% | viability, T/C [15] 80.9% | viability, T/C [16] 112% | viability, T/C [3] 78.2% | viability, T/C [4] 96.2% | viability, T/C [17] 98.7% | viability, T/C [18] 81.2% | viability, T/C [19] 103% | viability, T/C [20] 83.7% | viability, T/C [5] 91.8% | viability, T/C [6] 87.8% | viability, T/C [21] 77.2% | viability, T/C [22] 101% | viability, T/C [23] 88.4% | viability, T/C [24] 100% | viability, T/C [7] 71% | viability, T/C [8] 91.9% | viability, T/C [25] 86.1% | viability, T/C [26] 73.7% | viability, T/C [27] 82.8% | viability, T/C [28] 81.8% | viability, T/C [9] 68.4% | viability, T/C [10] 84.9% | viability, T/C [29] 84.1% | viability, T/C [30] 88.8% | viability, T/C [31] 89.8% | viability, T/C [32] 85.2% | viability, T/C [11] 91.5% | viability, T/C [12] 79.5% | viability, T/C [33] 111% | viability, T/C [34] 102% | viability, T/C [35] 107% | viability, T/C [36] 89.7%
> 10000 nM: IC50 (second compound 0.00949 µM) | IC50 (second compound 0.03 µM) | IC50 (second compound 0.0949 µM) | IC50 (second compound 0.3 µM) | IC50 (second compound 0.949 µM) | IC50 (second compound 3 µM)
